Measurements as given in patent US20240051956A1, “SOS1 INHIBITORS AND USES THEREOF” (QILU REGOR THERAPEUTICS INC., priority 2020, published 2024).
pIC50: −log10 of the molar value. Read-outs that look alike come from different tables or passages of the source.

Tests used:
[1] = molecular target: SOS1 and KRAS G12D (Homo sapiens (Human), UniProt Q07889); assay: KRAS::SOS1 AlphaScreen Binding Assay; settings: SOS1 (564-1049), KRAS G12D (1-169), GDP
Description: a. KRAS::SOS1 AlphaScreen Binding Assay
Low IC50 values of given compounds are indicative of high potency of the SOS1 inhibitor compounds in this assay setting.
• GST-TEV-SOS1 (564-1049) and His-TEV-Avi-KRAS G12D (1-169) are purchased from Viva Biotech (Shanghai) Ltd. • GDP (Sigma, Cat. G7127) • AlphaLISA Glutathione Acceptor Beads (PerkinElmer, Cat. AL109C) • AlphaScreen Streptavidin Donor Beads (PerkinElmer, Cat. 6760002S) • Assay plates: ProxiPlate-384 Plus, White 384-shallow well Microplate (PerkinElmer, Cat. 6008280)
SOS1 inhibitor compounds are diluted to a final start concentration of […]. Serial dilutions of compounds are made using Tecan D300e Digital Dispenser in 9 concentrations with serial 1:3 dilutions. 100 nL of compound solution is transferred to the 384-well assay plate per well, covering a range between 1 μM and 0.15 nM minimum in duplicate. 10 nM (final assay concentration) KRAS G12D, 5 nM (final assay concentration) SOS1 and 10 μM (final assay concentration) GDP are mixed in assay buffer, and 5 μL of KRAS::SOS1 GDP mix is added into the assay plate to the 100 nL of compound solution (final dilution in the assay 1:100, final DMSO concentration 1%). After a 30 min incubation, AlphaLISA Glutathione Acceptor Beads and AlphaScreen Streptavidin Donor Beads are mixed in assay buffer at a concentration of 5 µg/mL (final assay concentration), and 5 μL of bead mix is added into the assay plate. Plates are kept at room temperature in a darkened incubator for 3 h. After a 3 h incubation, the signal is determined using Envision (PerkinElmer). The excitation wavelength is 680 nm, and emission 615 nm. IC50 values are calculated and analyzed using GraphPad Prism.

[2] = tested on: NCI-H358; assay: Cell proliferation assay, 3D, CellTiter-Glo 3D; type: cell-based, human; settings: for pIC50: Homo sapiens, read-out: anit-prolif. H358 IC50
Experimental: b. Cell Proliferation Assay
Low IC50 values are indicative of high potency of the compounds in this assay setting.
Cell proliferation assay is performed in three-dimensional (3D) ultra-low conditions with the human cell line NCI-H358, a human non-small cell lung cancer (NSCLC) cell line with a KRAS G12C mutation.
• 96-well Clear Round Bottom Ultra-Low Attachment Microplate (Corning, Cat. 7007) • 96-well Flat Clear Bottom White Polystyrene TC-treated Microplates (Corning, Cat. 3610) • RPMI-1640 Medium (Gibco, Cat. 22400105) • Fetal Bovine Serum (FBS) (Gibco, Cat. 10099141C) • 0.25% Trypsin-EDTA (Gibco, Cat. 25200056) • Penicillin-Streptomycin (Gibco, Cat. 15140122) • CellTiter-Glo 3D Cell Viability Assay (Promega, Cat. G9683)
NCI-H358 cells (ATCC, Cat. CRL-5807) are grown in cell culture flasks using RPMI medium supplemented with 10% FBS. Cells are incubated at 37° C. and 5% C02 in a humidified atmosphere, with sub-cultivation performed twice a week. Cells are trypsinized, counted and plated in 96-well ultra-low adhesion plates for 3D cell viability determination. The day after plating, serial dilutions of SOS1 inhibitor compounds are made using Tecan D300e Digital Dispenser to evaluate a concentration-dependent effect on cell viability. The concentration of the test compounds covers a range between 5 μM and 0.76 nM with serial 1:3 dilutions in 9 concentrations. 0.5 μL serial dilutions of the compounds are added in duplicates. 3 days later, the CellTiter-Glo 3D Cell Viability Assay is used to measure cell viability effects of SOS1 inhibitor compounds in 3D format. Luminescent intensity is determined using Envision (PerkinElmer). Data is analyzed and IC50 values are calculated using GraphPad Prism.

[3] = Human liver microsomal stability; type: in vitro ADME; settings: for half-life: human liver microsomes, read-out: Human liver microsomal stability, T1/2; for stability in human liver microsomal assay: in words, compound I-18 vs present compounds
[4] = 72 h, NCI-H358 (KRAS G12C), 3D ultra-low attachment, 3 days

Chain of SOS1 and KRAS G12D (Q07889 564-1049, stated change not applied): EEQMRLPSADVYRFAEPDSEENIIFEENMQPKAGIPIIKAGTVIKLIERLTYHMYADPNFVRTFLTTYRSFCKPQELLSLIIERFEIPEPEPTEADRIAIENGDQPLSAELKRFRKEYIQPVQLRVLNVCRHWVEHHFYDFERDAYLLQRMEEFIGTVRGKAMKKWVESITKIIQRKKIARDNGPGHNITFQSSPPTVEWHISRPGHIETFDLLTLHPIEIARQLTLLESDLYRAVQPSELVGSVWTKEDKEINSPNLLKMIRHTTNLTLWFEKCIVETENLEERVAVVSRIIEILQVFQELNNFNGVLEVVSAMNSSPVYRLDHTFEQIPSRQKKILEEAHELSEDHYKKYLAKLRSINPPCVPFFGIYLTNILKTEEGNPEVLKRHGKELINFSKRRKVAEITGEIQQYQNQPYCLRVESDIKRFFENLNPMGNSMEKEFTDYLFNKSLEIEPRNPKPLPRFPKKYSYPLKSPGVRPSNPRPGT

Row | SMILES | pIC50 [1] | pIC50 [2, 4] | pIC50 ([2]; NCI-H358, H358 cells) | half-life [3] [h] | stability in human liver microsomal assay [3] | activity in H358 cellular assay ([2]; in words, compound I-18 vs present compounds)
1 | Cc1nc(N[C@H](C)c2cccc(C(F)(F)F)c2C)c2cn(N3CCOCC3)c(=O)c(F)c2n1 [Example 30] | ≥ 7.82 | ≥ 7.00 | 7.55 | 3.17 | dramatically improved | 
2 | Cc1nc(N[C@H](C)c2cccc(C(F)F)c2F)c2cn(N3CCOCC3)c(=O)c(-c3ccc(S(C)(=O)=O)cc3)c2n1 [Example 43, 4-[[(1R)-1-[3-(difluoromethyl)-2-fluoro-phenyl]ethyl]amino]-2-methyl-8-(4-methylsulfonylphenyl)-6-morpholino-pyrido[4,3-d]pyrimidin-7-one] | ≥ 7.82 | ≥ 7.00 | 7.28 | > 16.7 | dramatically improved | 
3 | Cc1nc(N[C@H](C)c2cccc(C(F)F)c2F)c2cn(N3CCOCC3)c(=O)c(-c3cnn(CCO)c3)c2n1 [Example 53] | ≥ 7.82 | ≥ 7.00 | 7.22 | 0.733 | dramatically improved | 
4 | COc1ccc(-c2c(=O)n(N3CCOCC3)cc3c(N[C@H](C)c4cccc(C(F)F)c4F)nc(C)nc23)cn1 [Example 58] | ≥ 7.82 | ≥ 7.00 |  |  |  | 
5 | Cc1nc(N[C@H](C)c2cccc(C(F)F)c2F)c2cn(N3CCOCC3)c(=O)c(-c3ccc(C(F)(F)F)nc3)c2n1 [Example 60] | 6.82 to 7.82 | ≥ 7.00 |  |  |  | 
6 | Cc1nc(N[C@H](C)c2cccc(C(F)F)c2F)c2cn(N3CCOCC3)c(=O)c(-c3ccc(S(C)(=O)=O)nc3)c2n1 [Example 61] | ≥ 7.82 | ≥ 7.00 | 7.51 | > 16.7 | dramatically improved | 
7 | Cc1nc(N[C@H](C)c2cccc(C(F)F)c2F)c2cn(N3CCOCC3)c(=O)c(-c3ccc(C#N)c(F)c3)c2n1 [Example 62] | 6.82 to 7.82 | 6.30 to 7.00 |  |  |  | 
8 | Cc1nc(N[C@H](C)c2cccc(C(F)F)c2F)c2cn(N3CCOCC3)c(=O)c(-c3ccc(F)c(C#N)c3)c2n1 [Example 63] | 6.82 to 7.82 | 6.00 to 6.30 |  |  |  | 
9 | Cc1nc(N[C@H](C)c2cccc(C(F)F)c2F)c2cn(N3CCOCC3)c(=O)c(-c3cc(F)cc(C#N)c3)c2n1 [Example 64] | 6.82 to 7.82 | 6.00 to 6.30 |  |  |  | 
10 | Cc1nc(N[C@H](C)c2cccc(C(F)F)c2F)c2cn(N3CCOCC3)c(=O)c(-c3cc(C#N)ccc3F)c2n1 [Example 65] | 6.82 to 7.82 | 6.30 to 7.00 |  |  |  | 
11 | Cc1nc(N[C@H](C)c2cccc(C(F)F)c2F)c2cn(N3CCOCC3)c(=O)c(-c3cnc(C#N)nc3)c2n1 [Example 66] | ≥ 7.82 | ≥ 7.00 |  |  |  | 
12 | Cc1nc(N[C@H](C)c2cccc(C(F)F)c2F)c2cn(N3CCOCC3)c(=O)c(-c3cnc(C#N)c(F)c3)c2n1 [Example 67] | 6.82 to 7.82 | ≥ 7.00 |  |  |  | 
13 | Cc1nc(N[C@H](C)c2cccc(C(F)F)c2F)c2cn(N3CCOCC3)c(=O)c(-c3ccc(P(C)(C)=O)nc3)c2n1 [Example 71] | ≥ 7.82 | 6.30 to 7.00 |  |  |  | 
14 | Cc1nc(N[C@H](C)c2cccc(C(F)F)c2F)c2cn(N3CCOCC3)c(=O)c(-c3ccc4nncn4c3)c2n1 [Example 72] | ≥ 7.82 | 6.30 to 7.00 |  |  |  | 
15 | Cc1nc(N[C@H](C)c2cccc(C(F)F)c2F)c2cn(N3CCOCC3)c(=O)c(-c3ccc4nccn4c3)c2n1 [Example 73] | ≥ 7.82 | ≥ 7.00 |  |  |  | 
16 | Cc1nc(N[C@H](C)c2cccc(C(F)F)c2F)c2cn(N3CCOCC3)c(=O)c(-c3ccc(C#N)nc3)c2n1 [Example 75, (R)-5-(4-((1-(3-(difluoromethyl)-2-fluorophenyl)ethyl)amino)-2-methyl-6-morpholino-7-oxo-6,7-dihydropyrido[4,3-]pyrimidin-8-yl)picolinonitrile] | ≥ 7.82 | ≥ 7.00 |  |  |  | 
17 | Cc1nc(N[C@H](C)c2cccc(C(F)(F)F)c2C)c2cn(N3CCOCC3)c(=O)c(-c3ccc(C#N)nc3)c2n1 [Example 76] | 6.82 to 7.82 | 6.30 to 7.00 |  |  |  | 
18 | CNCc1ccccc1-c1csc([C@@H](C)Nc2nc(C)nc3cc(=O)n(N4CCOCC4)cc23)c1 [Example 77, 2-methyl-4-[[(1R)-1-[4-[2-(methylaminomethyl)phenyl]-2-thienyl]ethyl]amino]-6-morpholino-pyrido[4,3-d]pyrimidin-7-one] | ≥ 7.82 | 6.30 to 7.00 |  |  |  | 
19 | Cc1nc(N[C@H](C)c2cccc(C(F)F)c2F)c2cn(-n3ccnc3)c(=O)c(F)c2n1 [Example 86] | 6.82 to 7.82 | 6.00 to 6.30 |  |  |  | 

More lines, main results first:

Row | pIC50 [1] | pIC50 [2, 4] | pIC50 ([2]; NCI-H358, H358 cells) | half-life [3] [h] | stability in human liver microsomal assay [3] | SMILES | activity in H358 cellular assay ([2]; in words, compound I-18 vs present compounds)
20 | ≥ 7.82 | ≥ 7.00 | 7.40 | 1.4 | dramatically improved | Cc1nc(N[C@H](C)c2cccc(C(F)F)c2F)c2cn(N3CCOCC3)c(=O)cc2n1 [Example 1, 4-[[(1R)-1-[3-(difluoromethyl)-2-fluoro-phenyl]ethyl]amino]-2-methyl-6-morpholino-pyrido[4,3-d]pyrimidin-7-one] | 
21 | ≥ 7.82 | ≥ 7.00 | 7.64 | 1.83 | dramatically improved | Cc1nc(N[C@H](C)c2cccc(C(F)(F)F)c2C)c2cn(N3CCOCC3)c(=O)cc2n1 [Example 17, (R)-2-methyl-4-((1-(2-methyl-3-(trifluoromethyl)phenyl)ethyl)amino)-6-morpholinopyrido[4,3-d]pyrimidin-7(6H)-one] | 
22 | ≥ 7.82 | ≥ 7.00 | 7.31 | 2.33 | dramatically improved | Cc1nc(N[C@H](C)c2cccc(C(F)F)c2F)c2cn(N3CCOCC3)c(=O)c(F)c2n1 [Example 29, (R)-4-((1-(3-(difluoromethyl)-2-fluorophenyl)ethyl)amino)-8-fluoro-2-methyl-6-morpholinopyrido[4,3-d]pyrimidin-7 (6H)-one] | 
23 | ≥ 7.82 | ≥ 7.00 |  |  |  | Cc1ccc(-c2c(=O)n(N3CCOCC3)cc3c(N[C@H](C)c4cccc(C(F)F)c4F)nc(C)nc23)cn1 [Example 59] | 
24 | ≥ 7.82 | 6.30 to 7.00 |  |  |  | Cc1nc(N[C@H](C)c2cccc(C(F)F)c2F)c2cn(N3CCOCC3)c(=O)c(-c3ccnc(C#N)c3)c2n1 [Example 68] | 
25 | ≥ 7.82 | ≥ 7.00 |  |  |  | Cc1nc(N[C@H](C)c2cccc(C(F)F)c2F)c2cn(N3CCOCC3)c(=O)c(-c3cn(CC(F)F)cn3)c2n1 [Example 69] | 
26 | ≥ 7.82 | 6.30 to 7.00 |  |  |  | Cc1nc(N[C@H](C)c2cccc(C(F)F)c2F)c2cn(N3CCOCC3)c(=O)c(-c3cnn(C)c3)c2n1 [Example 70] | 
27 | ≥ 7.82 | 6.30 to 7.00 |  |  |  | Cc1nc(N[C@H](C)c2cccc(C(F)F)c2F)c2cn(N3CCOCC3)c(=O)c(-c3ccccn3)c2n1 [Example 74, (R)-4-((1-(3-(difluoromethyl)-2-fluorophenyl)ethyl)amino)-2-methyl-6-morpholino-8-(pyridin-2-yl)pyrido[4,3-d]pyrimidin-7(6H)-one] | 
28 |  |  | 6.79 | 0.05 | very poor stability | Cc1nc(N[C@H](C)c2cccc(C(F)F)c2F)c2cn(C3CCOCC3)c(=O)cc2n1 [Example I-18, reference compound] | weaker activity
